Source: paper PMC7817177 (eLife, 2021)
One block for each molecule: values may come before it.

Tests used:
ARL3 = target: T1, ARL3 (Homo sapiens, UniProt P36405); assay: fluorescence polarisation, competition with mantGDP; type: binding; details: 2 uM mantGDP, 2 uM ARL3-GDP, 2 uM ARL13B 18-278 (GEF) present, pH 7.5, 5 mM MgCl2, room temperature, competitive
T1 construct: full-length, C-terminal His6 tag (untagged thrombin-cut version in some assays), E. coli BL21-CodonPlus(DE3)-RIL

ARL3^ΔN (ARL3^17-182) = target: T2, ARL3^ΔN (ARL3^17-182) (Homo sapiens, UniProt P36405); assay: fluorescence polarisation nucleotide exchange, displacement of mantGDP; type: binding; details: 150 uM GppNHp with ARL13B 18-278 (GEF); competitive
T2 construct: residues 17-182 (N-terminal helix removed), C-terminal His6 tag, E. coli

[1] = target: ADP-ribosylation factor-like 3 (ARL3), full length (human, UniProt P36405 1-182); assay: cell-based or functional assay
Chain of ADP-ribosylation factor-like 3 (ARL3), full length (P36405 whole entry): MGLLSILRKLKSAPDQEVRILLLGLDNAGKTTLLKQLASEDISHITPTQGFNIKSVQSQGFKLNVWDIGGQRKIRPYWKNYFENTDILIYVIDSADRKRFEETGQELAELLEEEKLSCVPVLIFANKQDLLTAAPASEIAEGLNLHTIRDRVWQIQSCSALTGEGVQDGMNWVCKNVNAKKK

T1 sequence (P36405 2-182): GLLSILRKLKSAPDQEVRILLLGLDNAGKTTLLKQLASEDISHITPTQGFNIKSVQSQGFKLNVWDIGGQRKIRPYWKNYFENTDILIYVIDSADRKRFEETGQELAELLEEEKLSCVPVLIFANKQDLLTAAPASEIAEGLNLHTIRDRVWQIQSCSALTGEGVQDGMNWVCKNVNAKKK
T2 sequence (P36405 17-182, stated change not applied): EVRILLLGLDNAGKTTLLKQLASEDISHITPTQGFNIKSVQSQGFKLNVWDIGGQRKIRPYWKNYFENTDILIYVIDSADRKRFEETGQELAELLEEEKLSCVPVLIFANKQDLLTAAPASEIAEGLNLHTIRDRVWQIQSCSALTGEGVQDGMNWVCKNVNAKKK

Molecule: Nc1nc2c(ncn2[C@@H]2O[C@H](COP(=O)(O)OP(=O)(O)O)[C@@H](O)[C@H]2O)c(=O)[nH]1 [GDP]
% mantGDP binding relative to no unlabelled nucleotide (ARL3; 40 uM unlabelled GDP): excess unlabelled GDP was able to compete with mantGDP

% mantGDP binding relative to no unlabelled nucleotide (ARL3; 40 uM unlabelled GTP): 53%
Molecule: Nc1nc2c(ncn2[C@@H]2O[C@H](COP(=O)(O)OP(=O)(O)OP(=O)(O)O)[C@@H](O)[C@H]2O)c(=O)[nH]1 [GTP]

% mantGDP binding relative to no unlabelled nucleotide (ARL3; 40 uM unlabelled GppNHp): 83.7%
Molecule: Nc1nc2c(ncn2[C@@H]2O[C@H](COP(=O)(O)OP(=O)(O)NP(=O)(O)O)[C@@H](O)[C@H]2O)c(=O)[nH]1 [GppNHp]
fluorescence polarisation nucleotide exchange, displacement of mantGDP (ARL3^ΔN (ARL3^17-182)): ARL3^ΔN undergoes significant nucleotide exchange upon the addition of ARL13B

acceleration by 20 µM BART of the exchange of 2 µM ARL3mantGDP with 150 µM unlabelled GDP and 10 µM ARL13B^18-278 (fluorescence polarisation) [1]: ~70 fold
B1: GST-tagged binder of ARL2 (BART), full length (natural protein, human, UniProt Q9Y2Y0 1-163, looked up)
chain: MDALEGESFALSFSSASDAEFDAVVGYLEDIIMDDEFQLLQRNFMDKYYLEFEDTEENKLIYTPIFNEYISLVEKYIEEQLLQRIPEFNMAAFTTTLQHHKDEVAGDIFDMLLTFTDFLAFKEMFLDYRAEKEGRGLDLSSGLVVTSLCKSSSLPASQNNLRH
